In patent US20250269072A1, “PROCESSES FOR PREPARING RADIOLABELLED CONJUGATES” (CENTENARY INSTITUTE OF CANCER MEDICINE AND CELL BIOLOGY, priority 2021, published 2025):
Several values for one entry are separate records, joined by “and”; a condition that tells them apart may be missing. Equal entries are not always repeated.

Tests used:
Assay type in all cases: in vivo
tumour deposits = test: Human studies: tumour uptake by PET and histological correlation
Source text: patient with squamous cell carcinoma of the oesophagus • 2. Person with metastatic ovarian carcinoma • 3. Person with metastatic cutaneous squamous cell carcinoma • 4. Person with invasive ductal breast carcinoma.
Whilst blood pool and clearance are reproducible, tumour uptake and clearance vary by tumour type.
Dissected tumours were fixed in formalin, embedded in paraffin and 4 μm thick sections were cut. Adjacent sections were stained for apoptotic cells using TUNEL (Abcam, Cat #206386) or morphology using haematoxylin and eosin. For TUNEL staining, sections were deparaffinized in xylene, rehydrated in decreasing concentrations of ethanol and permeabilized with Proteinase K for 20 min at room temperature. The endogenous peroxidase activity was quenched with 3% H2O2 for 5 min. Apoptotic cells were labelled with biotinylated terminal deoxynucleotidyl transferase at 37° C. in a humidified chamber for 2 h followed by a 30 min incubation with streptavidin-HRP conjugate. HRP-positive cells were developed using diaminobenzidine and sections counterstained with methyl green (Sigma). Whole sections were imaged using PowerMosaic scanning at 10× magnification on a Leica DM6000D microscope.

[1] = In-human study of ^68Ga-CDI: biodistribution (PET CT, blood, urine)
Description: Subjects were encouraged to be well orally hydrated prior to ^68Ga-CDI administration, otherwise there was no preparation required. Two intravenous cannulas were placed (one for administration of ^68Ga-CDI and the other blood sampling during the study). Immediately prior to ^68Ga-CDI administration clinical assessment of participants was performed, vital signs (blood pressure, heart rate, respiratory rate, arterial oxygen saturation and temperature) measured and a 12-lead electrocardiogram (ECG) obtained and QTc calculated according to Bazett's formula to confirm eligibility. ^68Ga-CDI was administered as an intravenous bolus.
Eight serial PET scans were then performed from skull vertex to the proximal femora. The first PET scan commenced immediately following administration of ^68Ga-CDI, with subsequent scans commencing at approximately 7, 17, 29, 47, 64, 120 and 180 minutes after administration (+/−5 minutes). All scans were performed on a Phillips ingenuity TF 128 PET CT scanner (Philips Medical Systems, Cleveland) with acquisition times increasing for each subsequent scan ranging from 30 s/bed (immediately after administration) to 240 s/bed (at 180 minutes after administration) to compensate for excretion and decay. All PET scans were reconstructed using CT attenuation correction with a time of flight, list-mode, blob-based, ordered subsets maximum likelihood expectation maximization algorithm (BLOB-OS-TF) (reconstructed voxel size 4×4×4 mm).
Immediately prior to the scan commencing at approximately 47 minutes post administration a low-dose, non-contrast CT of the same region was performed for attenuation correction and localisation (of the first six scans during which time the patient had not moved) (44-120 mAs, 120-140 kV adjusted for body weight and body mass index, iDose 3 iterative reconstruction, reconstructed voxel size 1.17×1.17×3 mm). Ultra-low dose non-contrast CT (25 mAs, 100 kV, filtered back projection reconstruction, reconstructed voxel size 1.17×1.17×3 mm) was performed for attenuation correction immediately prior to the 120 minute and 180 minute PET scans.
During and immediately following completion of the scanning protocol, subjects were clinically assessed for adverse reactions and vital signs measured. Blood was collected for venous radioactivity measurements at 1, 2 and 3 hours following ^68Ga-CDI administration. Subjects were asked to void between 1.5 to 2 h and 2.75 to 3 h after ^68Ga-CDI administration, urine collected, the volume measured, and an aliquot counted in a gamma counter to determine activity concentration. Following completion of the scanning protocol, ECG was recorded, and blood collected for biochemical and haematological assessment.
For analysis of uptake and biodistribution in normal tissues and organs, spherical volumes of interest (VOIs) were drawn on the Digital Imaging and Communications in Medicine (DICOM) ^68Ga-CDI-PET emission data on a workstation (IntelliSpace Portal, V5.0.2.60000, Philips Medical System, Best, The Netherlands) by an experienced nuclear medicine physician over clearly tumor-free regions of organs. VOI diameter varied depending on organ size but where possible was at least 10 mm. Spherical VOIs were also drawn over all tumor deposits greater than 10 mm in diameter. These VOIs were replicated across all time points and the mean, maximum and standard deviation of the activity concentration (Bq/mL) of all VOIs at each time point was recorded. Activity concentration was used to calculate the % injected activity (% IA) for organs and tissues based on the masses of source organs for standard phantom male and female models (Stabin & Siegel, Health Phys. 2003; 85:294-310). Mean, maximum and standard deviation of the SUV for each VOI was also a calculated from the activity concentration using the slope intercept stored with the DICOM CDI PET emission data.

[2] = In-human study of ^68Ga-CDI: radiation dosimetry (OLINDA/EXM 1.1); settings: 5 participants
Source text: Activity concentrations derived above were entered into OLINDA/EXM 1.1 and bi-exponential curves fitted using the curve fitting tools within OLINDA/EXM 1.1 (Stabin et al., J Nucl Med. 2005; 46:1023-1027).

For `O=C(O)CNC(=O)[C@H](CSCC(=O)Nc1ccc([As](O)O)cc1)NC(=O)CC[C@H](NC(=O)CCC1C(=O)[O][68Ga]2[O]C(=O)CN3CCN(CCN1CC3)CC(=O)[O]2)C(=O)O` (stereo partly shown) [^68Ga-NODAGA-GSAO], the “tumour uptake SUVmean” value (tumour deposits; breast carcinoma) was 1.8, the “correlation of tumour uptake with dead and dying cells” value (tumour deposits; histopathology) was “correlate with the proportion of dead and dying cells within the tumour” and the “tumour uptake SUVmean” value (tumour deposits; metastatic cutaneous squamous cell carcinoma) was 4.1. For the same compound, the “tumour uptake SUVmean” value (tumour deposits; metastatic ovarian carcinoma) was 1.9, the “tumour uptake SUVmean” value (tumour deposits; patient 3, right axillary nodal metastasis) was 4.1 and the “tumour uptake SUVmean” value (tumour deposits; squamous cell carcinoma of the oesophagus) was 3.8. The “tumour uptake relative to blood pool” value (tumour deposits; tumours with high uptake) was “up to 2 fold”, the “activity remaining in the blood pool, average” value (“activity remaining” for short) ([1]; 1 hour) was 12.2 % IA and the “average SUV kidneys” value ([1]; 1 hour post injection) was 5.3 SUV. The “activity remaining” value ([1]; 2 hours) was 8.8 % IA, the “average SUV kidneys” value ([1]; 2 hours post injection) was 4.9 SUV and the “activity remaining” value ([1]; 3 hours) was 7.7 % IA. The “average SUV kidneys” value ([1]; 3 hours post injection) was 4.0 SUV, the “total activity excreted in urine” value ([1]; by 90 minutes) was 39±18% and the “Estimated radiation dose, Average” value ([2]; Adrenals) was 1.28E−02 mSv/MBq. The “Estimated radiation dose, Average” value ([2]; Brain) was 1.75E−03 mSv/MBq, the “Estimated radiation dose, Average” value ([2]; Breasts) was 7.03E−03 mSv/MBq and the “Estimated radiation dose, Average” value ([2]; Effective dose, listed as 68Ga-CDI) was 2.17E-02±4.61E-03 mSv/MBq and 2.17E−02 mSv/MBq. For the same compound, the “Estimated radiation dose, Average” value ([2]; Gallbladder Wall) was 8.16E−03 mSv/MBq, the “Estimated radiation dose, Average” value ([2]; Heart Wall) was 1.02E−02 mSv/MBq and the “Estimated radiation dose, Average” value ([2]; Kidneys, listed as 68Ga-CDI) was 4.89E-02±3.55E-03 mSv/MBq and 4.89E−02 mSv/MBq. The “Estimated radiation dose, Average” value ([2]; LLI Wall) was 1.91E−02 mSv/MBq, the “Estimated radiation dose, Average” value ([2]; Liver) was 1.61E−02 mSv/MBq and the “Estimated radiation dose, Average” value ([2]; Lungs) was 7.75E−03 mSv/MBq. The “Estimated radiation dose, Average” value ([2]; Muscle) was 8.96E−03 mSv/MBq, the “Estimated radiation dose, Average” value ([2]; Osteogenic Cells) was 1.13E−02 mSv/MBq and the “Estimated radiation dose, Average” value ([2]; Ovaries) was 1.20E−02 mSv/MBq. For the same compound, the “Estimated radiation dose, Average” value ([2]; Pancreas) was 1.52E−02 mSv/MBq, the “Estimated radiation dose, Average” value ([2]; Red Marrow) was 8.89E−03 mSv/MBq and the “Estimated radiation dose, Average” value ([2]; Skin) was 5.39E−03 mSv/MBq. For the same compound, the “Estimated radiation dose, Average” value ([2]; Small Intestine) was 1.45E−02 mSv/MBq, the “Estimated radiation dose, Average” value ([2]; Spleen) was 1.59E−02 mSv/MBq and the “Estimated radiation dose, Average” value ([2]; Stomach Wall) was 1.00E−02 mSv/MBq. The “Estimated radiation dose, Average” value ([2]; Testes) was 1.67E−02 mSv/MBq, the “Estimated radiation dose, Average” value ([2]; Thymus) was 6.32E−03 mSv/MBq and the “Estimated radiation dose, Average” value ([2]; Thyroid) was 1.26E−02 mSv/MBq. The “Estimated radiation dose, Average” value ([2]; Total Body) was 9.66E−03 mSv/MBq, the “Estimated radiation dose, Average” value ([2]; ULI Wall) was 1.23E−02 mSv/MBq and the “Estimated radiation dose, Average” value ([2]; Urinary Bladder Wall, listed as 68Ga-CDI) was 2.79E-01±1.11E-01 mSv/MBq and 2.79E−01 mSv/MBq. The “Estimated radiation dose, Average” value ([2]; Uterus) was 2.63E−02 mSv/MBq.
